Laboratory results from patent US20250129062A1, “AMORPHOUS SUBSTANCES, CRYSTALS, PHARMACEUTICAL COMPOSITIONS, PREPARATION METHODS AND USES OF THIOHYDANTOIN COMPOUND OR PHARMACEUTICALLY ACCEPTABLE SALT THEREOF” (SUZHOU KINTOR PHARMACEUTICALS, INC., priority 2021, published 2025).

What was measured:
[1] = Distribution of compound in sebaceous glands and blood of golden hamsters after single skin application; assay type: in vivo; details: golden hamsters, administration via skin application; listed as amorphous substance of the compound of formula I
Experimental: 6 male golden hamsters were selected for the experiment, and randomly divided evenly into 2 groups, with three golden hamsters per group. All animals were fasted overnight before administration, and were administered via a route of single application. Sampling was performed at specific time points after administration. Specific information on animal grouping, administration, sampling, etc. were detailed in Table 6.
The amorphous substance of the compound of formula I was weighed and placed in a 50 mL centrifugal tube. A mixed solvent (consisting of 75% v/v ethanol, 15% v/v glyceryl tri (2-ethylhexanoate) and 10% v/v glycerin) was added. After vortexing, heating was performed at 60° C. until the amorphous substance of the compound of formula I was completely dissolved. The amorphous substances of the compound of formula I in the two groups were prepared at 30 mg/mL and 100 mg/mL, respectively, and stored at room temperature in the dark.
After administration, blood was collected into blood collection tubes containing a heparin sodium anticoagulant at corresponding time points. Immediately after collection of whole blood, the blood collection tubes were gently shaken and placed on ice, and then centrifuged (4° C., 4000 rpm, 10 min). The supernatant plasma samples (plasma volume ≥100 μL) were collected, and stored in a refrigerator at about −80° C. The plasma samples were collected for 8 h for analysis.

[2] = Long-term stability experiment of amorphous substance; assay type: physicochemical; details: for purity (HPLC): Long term
Experimental: (§1) Referring to ICH Q1A stability testing of new drug substances and products, the amorphous substance of the compound of formula I prepared in example 1 was subjected to a long-term stability experiment (experimental condition: 25±2° C., RH 60%=5%) and an accelerated stability experiment (experimental condition: 40±2° C., RH 75%=5%). The purity of the sample at different times was detected by HPLC under condition 2 to evaluate the physicochemical stability of the amorphous substance of the compound of formula I. The results were as shown in Table 18.
(§2) Condition 2: • Instruments: Agilent 1260; • Chromatographic column: C18 (150 mm×4.6 mm×3.5 μm); • column temperature: 45° C.; • Mobile phase: binary mobile phase system, mobile phase A was a 10 mM aqueous ammonium acetate solution (preparation method: ammonium acetate was added into purified water, and mixed evenly, and pH value was adjusted to 4.50±0.05 with acetic acid), mobile phase B was acetonitrile; • Elution mode: gradient elution, with specific procedures as shown in Table 17; • flow rate: 1.0 mL/min; • Injection volume: 5 μL; • Detection wavelength: 270 nm; • Data acquisition: OpenLab CDS2 software.

[3] = Accelerated stability experiment of amorphous substance; assay type: physicochemical; details: Acceleration
Experimental: as §1, §2

[4] = High temperature stability experiment of amorphous substance (60° C.); assay type: physicochemical; details: 60° C. in the dark
Experimental: The amorphous substance of the compound of formula I prepared in example 1 was stored at 60° C. in the dark for 30 days, and the purity percentages were detected by HPLC on day 0, day 5, day 10 and day 30, respectively.

Cc1ncsc1-c1ccc(CNC(=O)[C@@H]2C[C@@H](O)CN2C(=O)[C@@H](NC(=O)COCCCCOc2ccc(-c3ccc(N4C(=S)N(c5ccc(C#N)c(C(F)(F)F)c5F)C(=O)C4(C)C)cn3)cc2)C(C)(C)C)cc1
distribution between sebaceous glands and blood after skin application [1]: can enter sebaceous glands but cannot enter blood | purity (HPLC) ([2]; 3 months): 99.36% | purity (HPLC) ([2]; 6 months): 99.37% | purity (HPLC) ([2]; 9 months): 99.29% | purity (HPLC) ([2]; 25±2° C., RH 60%=5%, 0 month): 99.25% | stability ([2]; long-term, accelerated and high-temperature stability experiments): excellent stability | purity (HPLC) ([3]; 1 months): 99.41% | purity (HPLC) ([3]; 3 months): 99.35% | purity (HPLC) ([3]; 6 months): 99.36% | purity (HPLC) ([3]; 40±2° C., RH 75%=5%, 0 month): 99.25% | Purity % ([4]; 0 day): 99.35% | Purity % ([4]; 5 days): 99.34% | Purity % ([4]; 10 days): 99.27% | Purity % ([4]; 30 days): 99.34%
